In general, IC50 refers to the point on the concentration scale where inhibition reaches its midpoint.

The test system of one test is 8226 cells. Kind of test: Fura-2 intracellular Ca2+ fluorometry in 8226 cells. Format: cell-based, human.
For a further test, the system named is 8226/R5 cells. The test is described as follows: Fura-2 intracellular Ca2+ fluorometry in tipifarnib-resistant 8226/R5 cells. Format: cell-based, human. The following applies: 5 μM tipifarnib with 100 μM 2-APB.
Test [1] concerns U937 cells. The test is described as follows: MTT cytotoxicity / growth rate assay. The test is classed as cell-based. As to the method: Cytotoxicity analysis was determined by using the 3-(4,5-dimethylthiazol-2-yl)-2,5-diphenyltetrazolium bromide (MTT) dye reduction assay as previously described (Damiano J S, et al. Cell adhesion mediated drug resistance (CAM-DR): role of integrins and resistance to apoptosis in human myeloma cell lines. Blood. 1999 Mar. 1; 93(5):1658-67). For all cytotoxicity studies cells were exposed to both calcium modulating agents and tipifarnib simultaneously for 72 hours. After 72 hours at 37° C., 50 μl of MTT (Sigma Chemical) was added to each well and cells were incubated for an additional four hours. Plates were spun for 5 minutes at 1200 rpm in a Sorvall RT6000D table top centrifuge (Asheville, N.C.), supernatants were removed, and water-insoluble product was dissolved in 100 μl of 100% DMSO. Plates were shaken for 30 seconds and absorbance read at 540 nm on a Wallac Victor-2 1420 Multilabel Counter (PerkinElmer, Torrance, Calif.). All experiments were done in triplicate.
The effects of the Ca^2+ channel inhibition, using La^3+ and Gd^3+, were tested on survival of U937 cells.

Another test concerns TRPM2. The following applies: cited from earlier work.
The target in the next test is T1, TRPM7 (Homo sapiens, UniProt Q96QT4).
T1 construct: host or cells: HEK-293 (heterologous expression, in the cited studies)
T1 sequence (Q96QT4 whole entry, species assumed): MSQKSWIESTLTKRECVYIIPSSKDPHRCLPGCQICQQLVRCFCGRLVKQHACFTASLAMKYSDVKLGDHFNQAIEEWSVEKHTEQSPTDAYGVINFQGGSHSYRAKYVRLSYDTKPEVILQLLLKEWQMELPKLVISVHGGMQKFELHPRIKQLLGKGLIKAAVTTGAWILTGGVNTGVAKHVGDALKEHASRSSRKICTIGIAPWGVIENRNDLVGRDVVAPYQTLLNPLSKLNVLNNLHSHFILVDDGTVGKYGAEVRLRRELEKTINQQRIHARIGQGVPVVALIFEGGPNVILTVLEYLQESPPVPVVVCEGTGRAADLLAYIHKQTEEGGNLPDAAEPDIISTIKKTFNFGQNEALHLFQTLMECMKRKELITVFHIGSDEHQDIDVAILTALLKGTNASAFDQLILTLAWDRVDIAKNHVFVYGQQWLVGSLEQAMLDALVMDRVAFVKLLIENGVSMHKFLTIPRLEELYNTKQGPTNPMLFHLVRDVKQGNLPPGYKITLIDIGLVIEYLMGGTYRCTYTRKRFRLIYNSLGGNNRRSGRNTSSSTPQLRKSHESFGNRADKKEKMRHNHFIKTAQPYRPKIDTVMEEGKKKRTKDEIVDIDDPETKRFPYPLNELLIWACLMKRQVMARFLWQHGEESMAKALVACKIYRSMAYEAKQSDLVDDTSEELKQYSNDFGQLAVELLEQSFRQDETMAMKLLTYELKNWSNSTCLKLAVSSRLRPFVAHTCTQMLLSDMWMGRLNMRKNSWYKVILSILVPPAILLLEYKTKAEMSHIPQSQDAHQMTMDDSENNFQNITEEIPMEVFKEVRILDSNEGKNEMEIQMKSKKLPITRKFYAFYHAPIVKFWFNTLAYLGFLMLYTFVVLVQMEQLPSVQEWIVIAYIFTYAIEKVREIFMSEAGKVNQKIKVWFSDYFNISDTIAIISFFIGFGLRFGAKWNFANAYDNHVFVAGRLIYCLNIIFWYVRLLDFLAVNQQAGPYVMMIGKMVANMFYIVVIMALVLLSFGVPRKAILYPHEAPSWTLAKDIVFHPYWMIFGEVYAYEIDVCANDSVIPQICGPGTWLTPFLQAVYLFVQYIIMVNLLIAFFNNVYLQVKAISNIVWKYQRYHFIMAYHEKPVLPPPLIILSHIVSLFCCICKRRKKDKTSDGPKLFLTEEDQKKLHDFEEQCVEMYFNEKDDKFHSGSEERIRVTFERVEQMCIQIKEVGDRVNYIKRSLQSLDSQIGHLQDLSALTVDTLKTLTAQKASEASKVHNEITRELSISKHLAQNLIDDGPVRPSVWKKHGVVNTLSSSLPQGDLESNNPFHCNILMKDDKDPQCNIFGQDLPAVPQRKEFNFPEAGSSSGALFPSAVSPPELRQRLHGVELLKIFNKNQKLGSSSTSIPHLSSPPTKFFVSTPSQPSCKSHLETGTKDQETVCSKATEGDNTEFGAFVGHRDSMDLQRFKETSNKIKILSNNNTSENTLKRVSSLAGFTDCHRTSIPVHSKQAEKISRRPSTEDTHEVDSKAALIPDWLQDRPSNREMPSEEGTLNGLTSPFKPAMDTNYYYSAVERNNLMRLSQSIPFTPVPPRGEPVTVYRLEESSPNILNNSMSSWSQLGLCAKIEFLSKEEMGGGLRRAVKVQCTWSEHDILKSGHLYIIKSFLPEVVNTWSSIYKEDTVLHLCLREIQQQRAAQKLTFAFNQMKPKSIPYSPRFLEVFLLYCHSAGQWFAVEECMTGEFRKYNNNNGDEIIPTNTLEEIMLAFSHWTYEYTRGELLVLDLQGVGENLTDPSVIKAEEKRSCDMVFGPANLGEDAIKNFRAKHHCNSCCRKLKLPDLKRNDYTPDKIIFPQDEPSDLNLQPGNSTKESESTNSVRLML
The following applies: cited from earlier work; for Inhibition of TRPM7 channels at 10 μM / Concentration required to inhibit TRPM7: HEK-293 cells.

Another test has as its target Orai 1 channels (Homo sapiens, UniProt Q96D31). The following applies: endogenously and exogenously expressed; cited from earlier work.
In another test the target is Orai2 (Homo sapiens, UniProt Q96SN7). The following applies: cited from earlier work.
Orai2, sequence (Q96SN7 whole entry, species assumed): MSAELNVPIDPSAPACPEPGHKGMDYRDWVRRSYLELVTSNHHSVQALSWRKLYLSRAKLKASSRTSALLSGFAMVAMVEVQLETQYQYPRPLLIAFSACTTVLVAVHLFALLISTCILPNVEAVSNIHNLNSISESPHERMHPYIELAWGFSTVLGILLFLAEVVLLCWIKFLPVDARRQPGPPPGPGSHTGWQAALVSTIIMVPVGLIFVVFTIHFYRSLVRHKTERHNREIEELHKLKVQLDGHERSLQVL
The target in another test is Orai3 channels (Homo sapiens, UniProt Q9BRQ5). The following applies: up to 200 μM; cited from earlier work.
Test [2] has as its system U937 cells. The test is described as follows: Cell death by ER stressors in suspension or fibronectin-adhered U937 cells. The test is classed as cell-based. The following applies: for Cell death in suspension and fibronectin adhered tumor cells: FIGS. 2(a)-(c); for Difference in viability between suspension and fibronectin-adherent cells: concentration range tested. The method, then:
FIGS. 2(a)-(c) are graphs showing agents which evoke ER stress overcome cell adhesion mediated drug resistance in U937 cells. Percent of specific cell death induced in U937 cells in suspension (Suspension) or following adhesion to plates coated in fibronectin (Fibronectin) as a result of incubation in (A) tunicamycin, (B) thapsigargin, or (C) brefeldin A at the indicated concentrations.

The subject of test [3] is U937 cells. Kind of test: Fura-2 intracellular Ca2+ fluorometry in adhered U937 cells. The following applies: 5 μM tipifarnib, 10 μM FTI-277, 10 μM FTI-2153.
Protocol: (§1) Fura-2 loading was carried out incubating the plated cells for 1 hour at room temperature in physiological saline solution (PSS) consisting of (in mM): 140 NaCl, 3 KCl, 2.5 CaCl2, 1.2 MgCl2, 7.7 glucose and 10 HEPES (pH to 7.2 with NaOH), which also contained 1 μM of the membrane permeable ester form of fura-2, acetoxymethylester (fura-2 AM) fura-2 acetoxymethylester (fura-2 AM, +0.1% DMSO) and 0.1% dimethyl sulfoxide (DMSO). The coverslips were then washed in PSS (fura-2-AM free) prior to the experiments being carried out.
(§2) A DG-4 high-speed wavelength switcher (Sutter Instruments Co., Novato, Calif.) was used to apply alternating excitation light, and fluorescent emission was captured using a Sensicam digital CCD camera (Cooke Corporation, Auburn Hills, Mich.) and recorded with Slidebook 3.0 software (Intelligent Imaging Innovations, Denver, Colo.).
(§3) Therefore, the effects of tipifarnib on intracellular Ca^2+ concentrations in tumor cells were studied in adhered U937 leukemic cells using fura-2 mediated Ca^2+ fluorometry.
Test [4] relates to U937 cells. The following applies: 5 μM tipifarnib, adhered U937 cells, p<0.001.
Protocol: as §1, §2, §3

Where two headings read alike, the source gives them in different places.

Orai 1 channels, sequence (Q96D31 whole entry): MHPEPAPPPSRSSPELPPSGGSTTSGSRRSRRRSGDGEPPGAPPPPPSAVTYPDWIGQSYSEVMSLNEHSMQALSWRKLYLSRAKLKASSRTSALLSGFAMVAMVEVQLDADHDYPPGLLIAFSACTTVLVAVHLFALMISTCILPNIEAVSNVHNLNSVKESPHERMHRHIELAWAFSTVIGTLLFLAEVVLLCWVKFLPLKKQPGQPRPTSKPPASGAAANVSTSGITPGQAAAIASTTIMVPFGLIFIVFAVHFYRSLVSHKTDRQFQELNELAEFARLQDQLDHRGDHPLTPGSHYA
Protocol for 8226 cells: as §1, §2
Protocol for 8226/R5 cells: as §1, §2

Regarding `NCCOB(c1ccccc1)c1ccccc1` [2-APB, 2-aminoethoxydiphenyl borate], the “Amplification of tipifarnib-evoked increase in [Ca2+]i by 2-APB” value is on record as around 400% with 8226 cells (8226 cells, 5 μM tipifarnib with 100 μM 2-APB) and around 250% in the test on 8226/R5 cells. In the test with U937 cells [1], the “Effect of modulator on tipifarnib-induced growth inhibition / cell survival” value is “enhanced cell death”. Further, in the test with TRPM2 (HEK-293 cells, 150 μM 2-APB), the “Block of TRPM2 channels at 150 μM (second study)” value is on record as “not blocked”. Also, the IC50 in the test with TRPM2 (heterologously expressed in HEK-293 cells, read-out: IC50 for block of TRPM2 channels) was 1 µM. On TRPM7 (100 μM 2-APB), the “Block of TRPM7-evoked currents” value is on record as around 25%. At Orai 1 channels, the “Modulation of Orai1 channels by 2-APB” value is given as “potentiated at concentrations of 2-APB below 5 μM but inhibited by higher concentrations”. In addition, the “Modulation of Orai2 by 2-APB” value on Orai2 is “transient potentiation at concentrations of 2-APB≦20 μM and also blocked by higher concentrations”. In addition, the “Modulation of Orai3 channels by 2-APB” value at Orai3 channels is “potentiated by 2-APB even at 50 μM and do not seem to be blocked by concentrations as high as 200 μM”.

Regarding `C[C@H]1CCC/C=C/[C@@H]2C[C@H](O)C[C@H]2[C@H](O)/C=C/C(=O)O1` [Brefeldin A], in the test on U937 cells [2], the “Cell death in suspension and fibronectin adhered tumor cells” value (“Cell death” for short) is recorded as “dose dependent increase in cell death”; the “Difference in viability between suspension and fibronectin-adherent cells” value (shortened to “Difference”) is “no significant difference”.

For the molecule `COC(=O)[C@H](CCSC)NC(=O)c1ccc(NC[C@@H](N)CS)cc1-c1ccccc1` [FTI-277], in the test with U937 cells [3], the “Elevation of [Ca2+]i” value is “failed to stimulate elevations in [Ca^2+]i”.

Turning to `[Gd+3]` [Gd^3+], on TRPM7, the “Inhibition of TRPM7 channels at 10 μM” value is given as “failed to inhibit TRPM7 channels” and the “Concentration required to inhibit TRPM7” value is reported as 1 mM.

Turning to `[Cl][La]([Cl])[Cl]` [La^3+, lanthanum chloride], in the test with U937 cells [1] (U937 cells, MTT, 72 hours, 200 nM La3+, Gd3+ 100, ruthenium red 100 nM, 2-APB 5 μM and 100 μM), the “Effect of modulator on tipifarnib-induced growth inhibition / cell survival” value is listed as “statistically significant increase in survival of U937 cells”. Further, in the test with TRPM2 (La3+ ≦100 μM), the “Inhibition of TRPM2 channels” value is reported as “not inhibited”. In addition, at TRPM7, the “Inhibition of TRPM7 channels at 10 μM” value is recorded as “failed to inhibit TRPM7 channels” and the “Concentration required to inhibit TRPM7” value is reported as 1 mM.

Take `C/C=C(/C)C(=O)O[C@H]1C(C)=C2[C@H]([C@@H]1OC(=O)CCCCCCC)[C@@](C)(OC(C)=O)C[C@H](OC(=O)CCC)[C@@]1(O)[C@H]2OC(=O)[C@@]1(C)O` [thapsigargin]: in the test with U937 cells [2], the “Cell death” value was “dose dependent increase in cell death”; the “Difference” value is reported as “no significant difference”.

As to `Cn1cncc1[C@@](N)(c1ccc(Cl)cc1)c1ccc2c(c1)c(-c1cccc(Cl)c1)cc(=O)n2C` [tipifarnib, Tipifarnib], the “Amplitude of the [Ca2+]i response” value in the test with 8226 cells (5 µM) amounted to 215 ± 17 nM. Besides, the “Change in [Ca2+]i in 8226 cells, greater than in 8226/R5 cells” value in the test on 8226 cells (5 μM tipifarnib) is listed as above 250%. The “Increase in [Ca2+]i relative to vehicle alone (DMSO)” value in the test on U937 cells [4] is “more than 5 fold”.

For tunicamycin, in the test with U937 cells [2], the “Cell death” value is given as “dose dependent increase in cell death”; the “Difference” value is on record as “no significant difference”.

The values are drawn from patent US8362033B1, “Compounds and methods to dysregulate CA2+ homeostasis for cancer treatment” (University of South Florida, priority 2008, dated 2013).
